pIC50: −log10 of the molar value. Several values for one entry are separate records, joined by “and”; a condition that tells them apart may be missing. Equal values may be shown once.
Legend:
Assay in all cases: Kinase selectivity profile assay
Format in all cases: biochemical
GRK7 = molecular target: T1, GRK7 (Homo sapiens, UniProt Q8WTQ7); conditions: 500 nM; relative to DMSO; read-out: Residual enzymatic activity
T1 construct: purchased Reaction Biology Corporation
Outline: (§1)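 Radiometric kinase assay run by a standard protocol. Unbound phosphate was removed by washing filters in phosphoric acid, and product radioactivity gave percent remaining kinase activity versus DMSO vehicle reactions. Run in duplicate.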

CAMK1b = molecular target: T2, CAMK1b (Homo sapiens, UniProt Q6P2M8); conditions: 500 nM; relative to DMSO; read-out: Residual enzymatic activity
T2 construct: purchased Reaction Biology Corporation
Outline: as §1

STK32B/YANK2 = molecular target: T3, STK32B/YANK2 (Homo sapiens, UniProt Q9NY57); conditions: 500 nM; relative to DMSO; read-out: Residual enzymatic activity
T3 construct: purchased Reaction Biology Corporation
Outline: as §1

SIK3 = molecular target: T4, SIK3 (Homo sapiens, UniProt Q9Y2K2); conditions: 500 nM; relative to DMSO; read-out: Residual enzymatic activity
T4 construct: purchased Reaction Biology Corporation
Outline: as §1

Aurora C = molecular target: T5, Aurora C (Homo sapiens, UniProt Q9UQB9); conditions: 500 nM; relative to DMSO; read-out: Residual enzymatic activity
T5 construct: purchased Reaction Biology Corporation
Outline: as §1

TESK1 = molecular target: T6, TESK1 (Homo sapiens, UniProt Q15569); conditions: 500 nM; relative to DMSO; read-out: Residual enzymatic activity
T6 construct: purchased Reaction Biology Corporation
Outline: as §1

STK38L/NDR2 = molecular target: T7, STK38L/NDR2 (Homo sapiens, UniProt Q9Y2H1); conditions: 500 nM; relative to DMSO; read-out: Residual enzymatic activity
T7 construct: purchased Reaction Biology Corporation
Outline: as §1

EPHB1 = molecular target: T8, EPHB1 (Homo sapiens, UniProt P54762); conditions: for remaining activity at 0.5 µM: 500 nM, relative to DMSO, read-out: Residual enzymatic activity
T8 construct: purchased Reaction Biology Corporation (assay service)
T8 sequence (P54762 18-984): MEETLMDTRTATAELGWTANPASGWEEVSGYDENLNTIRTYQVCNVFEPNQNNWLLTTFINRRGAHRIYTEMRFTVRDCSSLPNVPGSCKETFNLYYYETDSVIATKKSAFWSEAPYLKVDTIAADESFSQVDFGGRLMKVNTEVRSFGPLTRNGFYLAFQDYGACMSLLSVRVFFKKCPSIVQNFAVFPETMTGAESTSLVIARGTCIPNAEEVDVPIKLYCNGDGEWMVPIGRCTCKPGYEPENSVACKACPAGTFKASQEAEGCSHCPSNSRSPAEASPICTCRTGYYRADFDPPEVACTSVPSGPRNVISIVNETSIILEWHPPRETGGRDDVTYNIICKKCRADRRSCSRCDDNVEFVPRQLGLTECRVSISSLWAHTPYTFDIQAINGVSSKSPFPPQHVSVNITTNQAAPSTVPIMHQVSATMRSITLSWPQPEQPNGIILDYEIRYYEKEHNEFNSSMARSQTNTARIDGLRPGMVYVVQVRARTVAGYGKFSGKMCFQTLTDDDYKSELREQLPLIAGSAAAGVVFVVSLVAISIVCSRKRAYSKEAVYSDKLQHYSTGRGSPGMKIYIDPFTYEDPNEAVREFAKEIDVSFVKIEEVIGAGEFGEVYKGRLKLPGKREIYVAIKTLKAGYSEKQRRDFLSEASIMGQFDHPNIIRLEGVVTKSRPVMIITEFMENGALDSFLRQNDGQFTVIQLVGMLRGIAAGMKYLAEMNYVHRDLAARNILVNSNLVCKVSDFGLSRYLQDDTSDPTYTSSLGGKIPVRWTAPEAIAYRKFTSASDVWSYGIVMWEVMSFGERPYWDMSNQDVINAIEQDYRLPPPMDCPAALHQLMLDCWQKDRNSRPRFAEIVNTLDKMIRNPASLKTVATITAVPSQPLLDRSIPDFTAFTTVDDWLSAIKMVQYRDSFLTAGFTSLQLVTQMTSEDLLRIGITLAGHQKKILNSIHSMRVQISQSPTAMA
Outline: as §1

PKCg = molecular target: T9, PKCg (Homo sapiens, UniProt P05129); conditions: 500 nM; relative to DMSO; read-out: Residual enzymatic activity
T9 construct: purchased Reaction Biology Corporation
Outline: as §1

NLK = molecular target: T10, NLK (Homo sapiens, UniProt Q9UBE8); conditions: 500 nM; relative to DMSO; read-out: Residual enzymatic activity
T10 construct: purchased Reaction Biology Corporation
Outline: as §1

CDK9/cyclin T1 = molecular target: T11, CDK9/cyclin T1 (Homo sapiens, UniProt P50750); conditions: 500 nM; relative to DMSO; read-out: Residual enzymatic activity
T11 construct: purchased Reaction Biology Corporation
Outline: as §1

ULK1 = molecular target: T12, ULK1 (Homo sapiens, UniProt O75385); conditions: 500 nM; relative to DMSO; read-out: Residual enzymatic activity
T12 construct: purchased Reaction Biology Corporation
Outline: as §1

EPHA3 = molecular target: T13, EPHA3 (Homo sapiens, UniProt P29320); conditions: 500 nM, relative to DMSO
T13 construct: purchased Reaction Biology Corporation
Outline: as §1

PHKg1 = molecular target: T14, PHKg1 (Homo sapiens, UniProt Q16816); conditions: 500 nM; relative to DMSO; read-out: Residual enzymatic activity
T14 construct: purchased Reaction Biology Corporation
Outline: as §1

ULK3 = molecular target: T15, ULK3 (Homo sapiens, UniProt Q6PHR2); conditions: 500 nM; relative to DMSO; read-out: Residual enzymatic activity
T15 construct: purchased Reaction Biology Corporation
Outline: as §1

CLK4 = molecular target: T16, CLK4 (Homo sapiens, UniProt Q9HAZ1); conditions: 500 nM; relative to DMSO; read-out: Residual enzymatic activity
T16 construct: purchased Reaction Biology Corporation
Outline: as §1

SGK2 = molecular target: T17, SGK2 (Homo sapiens, UniProt Q9HBY8); conditions: 500 nM; relative to DMSO; read-out: Residual enzymatic activity
T17 construct: purchased Reaction Biology Corporation
Outline: as §1

PKG1a = molecular target: T18, PKG1a (Homo sapiens, UniProt Q13976); conditions: 500 nM; relative to DMSO; read-out: Residual enzymatic activity
T18 construct: purchased Reaction Biology Corporation
Outline: as §1

TYK2 = molecular target: T19, TYK2 (Homo sapiens, UniProt P29597); conditions: 500 nM; relative to DMSO; read-out: Residual enzymatic activity
T19 construct: purchased Reaction Biology Corporation
Outline: as §1

FRK/PTK5 = molecular target: T20, FRK/PTK5 (Homo sapiens, UniProt P42685); conditions: 500 nM, relative to DMSO; for remaining activity at 0.5 µM: read-out: Residual enzymatic activity
T20 construct: purchased Reaction Biology Corporation
Outline: as §1

PKCa = molecular target: T21, PKCa (Homo sapiens, UniProt P17252); conditions: 500 nM; relative to DMSO; read-out: Residual enzymatic activity
T21 construct: purchased Reaction Biology Corporation
Outline: as §1

PKA = molecular target: T22, PKA (Homo sapiens, UniProt P17612); conditions: 500 nM, relative to DMSO; for remaining activity at 0.5 µM: read-out: Residual enzymatic activity
T22 construct: purchased Reaction Biology Corporation
Outline: as §1

CDK5/p25 = molecular target: T23, CDK5/p25 (Homo sapiens, UniProt Q00535); conditions: 500 nM; relative to DMSO; read-out: Residual enzymatic activity
T23 construct: purchased Reaction Biology Corporation
Outline: as §1

c-MET = molecular target: T24, c-MET (Homo sapiens, UniProt P08581); conditions: 500 nM; relative to DMSO; read-out: Residual enzymatic activity
T24 construct: purchased Reaction Biology Corporation
Outline: as §1

ERBB2/HER2 = molecular target: T25, ERBB2/HER2 (Homo sapiens, UniProt P04626); conditions: 500 nM; relative to DMSO; read-out: Residual enzymatic activity
T25 construct: purchased Reaction Biology Corporation
Outline: as §1

IKKb/IKBKB = molecular target: T26, IKKb/IKBKB (Homo sapiens, UniProt O14920); conditions: 500 nM; relative to DMSO; read-out: Residual enzymatic activity
T26 construct: purchased Reaction Biology Corporation
Outline: as §1

MKK6 = molecular target: T27, MKK6 (Homo sapiens, UniProt P52564); conditions: 500 nM; relative to DMSO; read-out: Residual enzymatic activity
T27 construct: purchased Reaction Biology Corporation
Outline: as §1

T20 sequence (P42685 whole entry): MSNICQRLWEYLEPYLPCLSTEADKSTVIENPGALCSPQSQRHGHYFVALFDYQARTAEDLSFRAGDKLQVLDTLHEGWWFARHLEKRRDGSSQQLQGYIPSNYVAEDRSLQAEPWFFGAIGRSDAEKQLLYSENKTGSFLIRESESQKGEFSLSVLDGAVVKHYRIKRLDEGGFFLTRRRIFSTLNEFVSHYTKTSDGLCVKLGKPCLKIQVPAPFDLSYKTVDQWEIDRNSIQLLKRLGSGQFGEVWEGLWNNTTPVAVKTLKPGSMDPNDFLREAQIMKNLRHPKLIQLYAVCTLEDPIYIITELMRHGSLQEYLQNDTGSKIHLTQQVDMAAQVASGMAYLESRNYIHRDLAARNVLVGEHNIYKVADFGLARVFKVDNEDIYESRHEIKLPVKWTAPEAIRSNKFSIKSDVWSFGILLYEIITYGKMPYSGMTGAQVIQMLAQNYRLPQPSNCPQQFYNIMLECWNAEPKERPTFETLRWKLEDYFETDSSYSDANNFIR
T19 sequence (P29597 whole entry): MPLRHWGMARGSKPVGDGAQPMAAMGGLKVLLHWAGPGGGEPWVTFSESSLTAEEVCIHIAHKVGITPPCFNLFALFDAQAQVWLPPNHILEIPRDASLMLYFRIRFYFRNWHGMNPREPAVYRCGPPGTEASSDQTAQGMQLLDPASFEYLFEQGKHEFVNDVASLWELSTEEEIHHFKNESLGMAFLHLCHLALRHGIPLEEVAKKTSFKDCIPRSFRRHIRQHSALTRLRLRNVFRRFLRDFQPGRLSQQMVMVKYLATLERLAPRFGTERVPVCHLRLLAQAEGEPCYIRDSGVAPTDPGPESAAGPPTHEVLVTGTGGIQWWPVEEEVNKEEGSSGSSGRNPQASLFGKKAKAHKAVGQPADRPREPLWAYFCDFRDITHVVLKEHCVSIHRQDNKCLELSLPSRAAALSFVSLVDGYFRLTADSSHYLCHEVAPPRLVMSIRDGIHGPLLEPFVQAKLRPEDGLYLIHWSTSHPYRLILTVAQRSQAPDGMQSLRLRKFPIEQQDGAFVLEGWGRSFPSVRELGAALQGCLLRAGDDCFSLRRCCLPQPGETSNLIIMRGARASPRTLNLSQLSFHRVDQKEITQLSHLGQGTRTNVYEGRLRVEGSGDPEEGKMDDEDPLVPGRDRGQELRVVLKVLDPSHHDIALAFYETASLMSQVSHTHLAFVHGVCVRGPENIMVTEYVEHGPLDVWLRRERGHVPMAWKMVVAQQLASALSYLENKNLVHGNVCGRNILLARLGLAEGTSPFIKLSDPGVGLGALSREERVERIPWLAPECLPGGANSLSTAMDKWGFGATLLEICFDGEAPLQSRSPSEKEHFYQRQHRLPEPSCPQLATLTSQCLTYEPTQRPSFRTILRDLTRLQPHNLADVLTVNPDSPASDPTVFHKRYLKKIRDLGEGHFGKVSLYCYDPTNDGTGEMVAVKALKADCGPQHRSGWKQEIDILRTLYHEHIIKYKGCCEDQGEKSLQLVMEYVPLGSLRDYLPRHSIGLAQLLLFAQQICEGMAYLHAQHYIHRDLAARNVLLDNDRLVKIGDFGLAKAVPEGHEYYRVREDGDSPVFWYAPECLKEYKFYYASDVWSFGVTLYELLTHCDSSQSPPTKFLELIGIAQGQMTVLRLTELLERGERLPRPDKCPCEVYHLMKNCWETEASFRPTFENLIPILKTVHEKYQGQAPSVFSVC
T7 sequence (Q9Y2H1 whole entry): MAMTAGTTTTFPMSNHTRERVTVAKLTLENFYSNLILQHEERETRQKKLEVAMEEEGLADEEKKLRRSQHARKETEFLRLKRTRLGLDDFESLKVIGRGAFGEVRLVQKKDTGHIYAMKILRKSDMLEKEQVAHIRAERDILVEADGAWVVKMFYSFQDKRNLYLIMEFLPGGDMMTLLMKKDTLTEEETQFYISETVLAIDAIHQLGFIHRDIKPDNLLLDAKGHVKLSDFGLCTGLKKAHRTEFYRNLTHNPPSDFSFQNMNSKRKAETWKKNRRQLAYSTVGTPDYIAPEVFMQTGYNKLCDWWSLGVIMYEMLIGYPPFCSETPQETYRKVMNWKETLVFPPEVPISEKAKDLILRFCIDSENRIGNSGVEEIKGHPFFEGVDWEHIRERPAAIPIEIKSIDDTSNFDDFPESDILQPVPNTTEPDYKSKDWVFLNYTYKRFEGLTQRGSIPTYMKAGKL
T17 sequence (Q9HBY8 whole entry): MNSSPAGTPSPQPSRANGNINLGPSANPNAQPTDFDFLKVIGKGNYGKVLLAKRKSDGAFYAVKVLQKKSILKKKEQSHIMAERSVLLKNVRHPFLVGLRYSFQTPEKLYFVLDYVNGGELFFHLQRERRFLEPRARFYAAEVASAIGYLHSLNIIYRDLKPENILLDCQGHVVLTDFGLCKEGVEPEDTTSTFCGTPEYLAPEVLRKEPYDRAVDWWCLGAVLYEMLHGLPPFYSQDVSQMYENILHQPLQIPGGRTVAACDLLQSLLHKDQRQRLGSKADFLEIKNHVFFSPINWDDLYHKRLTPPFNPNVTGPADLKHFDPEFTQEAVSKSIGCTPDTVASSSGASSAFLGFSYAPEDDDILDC
T1 sequence (Q8WTQ7 whole entry): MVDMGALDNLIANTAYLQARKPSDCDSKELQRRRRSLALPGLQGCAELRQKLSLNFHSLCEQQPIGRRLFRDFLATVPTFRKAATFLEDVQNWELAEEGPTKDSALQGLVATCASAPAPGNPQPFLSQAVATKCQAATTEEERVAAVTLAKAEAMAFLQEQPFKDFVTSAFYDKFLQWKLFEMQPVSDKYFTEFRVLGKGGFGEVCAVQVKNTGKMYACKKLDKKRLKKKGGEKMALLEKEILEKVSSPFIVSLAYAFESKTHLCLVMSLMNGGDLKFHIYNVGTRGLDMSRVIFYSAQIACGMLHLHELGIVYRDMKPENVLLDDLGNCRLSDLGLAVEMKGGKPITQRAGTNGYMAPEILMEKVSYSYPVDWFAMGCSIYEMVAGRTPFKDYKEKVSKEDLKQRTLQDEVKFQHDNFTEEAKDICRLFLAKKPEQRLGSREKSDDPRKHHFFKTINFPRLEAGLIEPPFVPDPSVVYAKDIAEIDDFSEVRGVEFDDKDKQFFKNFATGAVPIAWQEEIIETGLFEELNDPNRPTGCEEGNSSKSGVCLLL
T5 sequence (Q9UQB9 whole entry): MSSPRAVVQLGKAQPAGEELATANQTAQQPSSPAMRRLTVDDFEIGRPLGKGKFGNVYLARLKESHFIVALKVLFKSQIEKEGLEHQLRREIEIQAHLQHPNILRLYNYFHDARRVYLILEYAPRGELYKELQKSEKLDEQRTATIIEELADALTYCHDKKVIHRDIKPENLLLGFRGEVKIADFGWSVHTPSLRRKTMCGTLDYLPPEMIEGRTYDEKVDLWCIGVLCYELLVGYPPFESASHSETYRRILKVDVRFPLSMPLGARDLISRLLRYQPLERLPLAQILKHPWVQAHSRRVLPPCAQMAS
T4 sequence (Q9Y2K2 whole entry): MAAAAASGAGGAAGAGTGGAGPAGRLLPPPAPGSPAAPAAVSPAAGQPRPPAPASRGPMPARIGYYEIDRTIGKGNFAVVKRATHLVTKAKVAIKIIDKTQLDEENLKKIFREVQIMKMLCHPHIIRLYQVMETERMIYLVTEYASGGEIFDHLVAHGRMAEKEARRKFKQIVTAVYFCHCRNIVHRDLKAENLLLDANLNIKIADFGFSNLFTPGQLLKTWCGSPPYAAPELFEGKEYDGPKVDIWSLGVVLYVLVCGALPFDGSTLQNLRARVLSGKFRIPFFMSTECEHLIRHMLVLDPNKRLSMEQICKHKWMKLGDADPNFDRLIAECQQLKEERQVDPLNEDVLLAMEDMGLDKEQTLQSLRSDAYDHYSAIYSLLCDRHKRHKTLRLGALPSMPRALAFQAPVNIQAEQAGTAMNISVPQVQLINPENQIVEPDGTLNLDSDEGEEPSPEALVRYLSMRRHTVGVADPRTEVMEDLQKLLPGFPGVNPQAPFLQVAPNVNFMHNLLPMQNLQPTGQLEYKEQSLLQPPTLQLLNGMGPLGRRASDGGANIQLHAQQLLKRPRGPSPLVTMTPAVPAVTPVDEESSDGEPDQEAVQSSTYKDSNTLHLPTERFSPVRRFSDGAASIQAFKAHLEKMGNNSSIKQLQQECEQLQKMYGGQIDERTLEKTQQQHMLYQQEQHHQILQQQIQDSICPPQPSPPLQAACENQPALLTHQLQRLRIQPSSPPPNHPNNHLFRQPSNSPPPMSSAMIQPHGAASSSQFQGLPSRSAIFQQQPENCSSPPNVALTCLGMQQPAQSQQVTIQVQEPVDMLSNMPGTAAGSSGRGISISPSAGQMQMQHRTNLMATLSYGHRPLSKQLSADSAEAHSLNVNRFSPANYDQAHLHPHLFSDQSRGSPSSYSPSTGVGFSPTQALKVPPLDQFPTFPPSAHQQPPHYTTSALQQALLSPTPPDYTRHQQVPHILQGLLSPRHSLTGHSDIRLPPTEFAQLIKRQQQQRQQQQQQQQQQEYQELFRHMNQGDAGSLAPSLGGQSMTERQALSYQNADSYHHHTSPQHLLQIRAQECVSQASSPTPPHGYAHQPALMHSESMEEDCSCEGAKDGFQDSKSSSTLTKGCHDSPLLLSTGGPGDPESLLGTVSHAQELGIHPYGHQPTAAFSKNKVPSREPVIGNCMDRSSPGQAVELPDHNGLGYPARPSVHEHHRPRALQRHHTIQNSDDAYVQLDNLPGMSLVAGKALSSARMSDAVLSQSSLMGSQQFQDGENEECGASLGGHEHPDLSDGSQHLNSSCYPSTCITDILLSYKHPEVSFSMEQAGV
T27 sequence (P52564 whole entry): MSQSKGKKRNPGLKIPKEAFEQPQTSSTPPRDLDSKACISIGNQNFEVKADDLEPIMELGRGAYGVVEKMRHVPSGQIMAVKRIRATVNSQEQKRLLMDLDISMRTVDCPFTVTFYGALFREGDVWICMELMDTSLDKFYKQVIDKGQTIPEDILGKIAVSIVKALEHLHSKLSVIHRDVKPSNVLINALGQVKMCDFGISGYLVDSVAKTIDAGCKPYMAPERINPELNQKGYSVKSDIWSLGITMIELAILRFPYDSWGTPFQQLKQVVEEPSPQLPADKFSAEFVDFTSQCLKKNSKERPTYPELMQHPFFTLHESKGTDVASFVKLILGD

Compound	remaining activity at 0.5 µM (GRK7) [%]	remaining activity at 0.5 µM (CAMK1b) [%]	remaining activity at 0.5 µM (STK32B/YANK2) [%]	remaining activity at 0.5 µM (SIK3) [%]	remaining activity at 0.5 µM (Aurora C) [%]	remaining activity at 0.5 µM (TESK1) [%]	remaining activity at 0.5 µM (STK38L/NDR2) [%]	remaining activity at 0.5 µM (EPHB1) [%]	remaining activity at 0.5 µM (PKCg) [%]	remaining activity at 0.5 µM (NLK) [%]	remaining activity at 0.5 µM (CDK9/cyclin T1) [%]	remaining activity at 0.5 µM (ULK1) [%]	remaining activity at 0.5 µM (PHKg1) [%]	remaining activity at 0.5 µM (ULK3) [%]	remaining activity at 0.5 µM (CLK4) [%]	remaining activity at 0.5 µM (SGK2) [%]	remaining activity at 0.5 µM (PKG1a) [%]	remaining activity at 0.5 µM (TYK2) [%]	remaining activity at 0.5 µM (FRK/PTK5) [%]	remaining activity at 0.5 µM (PKCa) [%]	further results
COc1cc(Nc2ncnc(Nc3cc4c(cn3)NC(=O)C(C)(C)O4)n2)cc(OC)c1OC [MT-SYK-03]	99.7	106	103	83.4	89.2	94.5	89.6	9.6	103	94.9	118	62.2	97.1	74.9	88.7	110	94.8	71.2	> 54	92.3	pIC50 (EPHB1; 10-dose mode, threefold serial dilution from 10 μM): 7.60 and 7.61; Residual enzymatic activity (EPHA3): 91.8%; Residual enzymatic activity (FRK/PTK5): 56.5%; Residual enzymatic activity (PKA): did not inhibit any; remaining activity at 0.5 µM (PKA): 96.4%; remaining activity at 0.5 µM (CDK5/p25): 102%; remaining activity at 0.5 µM (c-MET): 108%; remaining activity at 0.5 µM (ERBB2/HER2): 82.2%; remaining activity at 0.5 µM (IKKb/IKBKB): 94%; remaining activity at 0.5 µM (MKK6): 116%
COc1cc(Nc2ncc(F)c(Nc3ccc4c(n3)NC(=O)C(C)(C)O4)n2)cc(OC)c1OC [R406, reference compound]	89.6	108	92	75.4	42.1	85.7	32.1	-4	63.6	107	99.5	8.8	61.5	20.3	52.1	106	85.4	10.5	35	58.3	remaining activity at 0.5 µM (EPHA3; read-out: Residual enzymatic activity): 85.6%; remaining activity at 0.5 µM (PKA): 50.8%; remaining activity at 0.5 µM (CDK5/p25): 79.4%; remaining activity at 0.5 µM (c-MET): 71.4%; remaining activity at 0.5 µM (ERBB2/HER2): 80.5%; remaining activity at 0.5 µM (IKKb/IKBKB): 53%; remaining activity at 0.5 µM (MKK6): 112%

— PMC8632988, “Inhibition of SYK and cSrc kinases can protect bone and cartilage in preclinical models of osteoarthritis and rheumatoid arthritis” (Scientific Reports, 2021)
